From US20220265759A1, “COMPOSITION AND METHOD FOR PROMOTING WOUND HEALING” (THE BOARD OF TRUSTEES OF THE UNIVERSITY OF ILLIOIS, priority 2019, published 2022) come the findings set out here.

The structures appear in SMILES notation. Peptide text beside a SMILES is read from it. * marks the point of attachment. Myristoyl = CCCCCCCCCCCCCC(=O)*

The target in one experiment is T1, CaM-eNOS binding (Homo sapiens, UniProt P0DP23).
T1 construct: endogenous in cells
Description: Co-IP of eNOS-CaM binding in endothelial cells. It counts as cell-based. As to conditions: pretreatment, 5-minute treatment with 500 ng/ml CCL28. An excerpt:
Co-IP Experiments, cells or mouse wounds were collected after treatment, and lysed in 2% ODG in Tris buffer. The homogenates were further prepared for Co-IP experiments as described in the art (Chen, et al. (2018) Mol. Biol. Cell 29(10):1190-1202; Chen, et al. (2020) FASEB J. 34(4):5838-5850; Chen, et al. (2015) Ann. Rheum. Dis. 74:1898-1906).
It has been reported that calmodulin (CaM) binding to bovine eNOS occurs at residues 493-[…]-512 (SEQ ID NO:2) (Venema, et al. (1996) J. Biol. Chem. 271(11):6435-6440; Venema, et al. (1995) J. Biol. Chem. 270:14705-14711). Therefore, using Co-IP, it was assessed whether Myr-CBD7 affects eNOS-CaM binding.

Experiment [1] deals with full thickness excisional wounds on mouse dorsal skin. Briefly: Excisional dermal wound healing in WT C57BL/6 mice. It counts as in vivo. To be noted: for reduction of wound size: compared to control peptide. The procedure: (§1) Mouse Healing Models. All animal procedures were performed in accordance with the Guide for the Care and Use of Laboratory Animals (National Institutes of Health). WT C57BL/6, eNOS^−/− and db/db mice were purchased from Jackson Laboratory (Bar Harbor, Me.). CCR10^−/− mice have been described in the art, see, e.g., Jin, et al. (2011) J. Immunol. 185(10):5723-31. Four 5-mm or two 8-mm full thickness excisional wounds were made on the dorsal skin of mice (male, aged at 9 weeks) using a standard skin biopsy punch under ketamine (100 mg/kg) and xylazine (5 mg/kg) anesthesia. Scrambled myristoylated (Myr−) control or Myr-CBD7 peptides were applied topically to wounds in F-127 gel sold under the tradename PLURONIC® after wounding (Mirza, et al. (2009) Am. J. Pathol. 175:2454-2462). Wound size was determined as previously described (Chen, et al. (2020) FASEB J. 34(4):5838-5850; Zhao, et al. (2016) PLoS ONE. 11:e0146451) and wounds were collected at indicated times for indicated measurements.
Hematoxylin and Eosin (H&E) Staining. H&E staining was performed as described previously (Chignalia, et al. (2015) Am. J. Pathol. 185:1251-1263). Slides with 5 μm tissue sections were baked at 60° C. for 30 minutes and stained with an Autostainer XL (Leica Microsystems, Wetzlar, Germany) using preset protocol. Briefly, slides were deparaffinized in three changes of xylene, rehydrated in 100% and 95% ethanol, […] followed by a brief immersion in High-Def and Bluing to obtain crisp nuclear details. Slides were then incubated in eosin for 2 minutes, dehydrated and mounted with Micromount media (Leica Biosystems). Whole slide images were obtained using Aperio AT2 brightfield scanner (Leica Microsystems, Wetzlar, Germany).
CCL28 (also called mucosa-associated epithelial chemokine) is a CC chemokine that signals via CCR10 as well as CCR3 (Pan, et al. (2000) J. Immunol. 165:2943). CCR10 has been reported to have two functional ligands, CCL27 and CCL28 that are involved in the epithelial immunity (Xiang, et al. (2012) Protein Cell 3:571-580). It was observed that CCL28 and CCR10 levels were highly expressed compared to CCL27 and CCR3 in skin of WT C57BL/6 mice. […] Therefore, it was subsequently investigated whether blockade of CCR10-eNOS interaction with Myr-CBD7 peptide has an effect on wound healing in WT C57BL/6 mice. Four 5 mm diameter full thickness excisional wounds were made on the mouse dorsal skin and 30 μl Myr-CBD7 peptide (50 μM) was topically administrated onto the wounds immediately after creating the punch wound.

Experiment [2] relates to full thickness excisional wounds on db/db mouse dorsal skin. Briefly: Excisional dorsal skin wound healing in diabetic db/db mice. The format is in vivo. On the procedure: as §1
(§2) Two 8 mm full thickness excisional wounds were made on the dorsal skin of diabetic db/db mice and then 50 μl of 50 μM Myr-CBD7 peptide was topically applied. […] Reduced CCR10-eNOS interaction was also observed in the mouse wounds following treatment with Myr-CBD7 peptide as determined by Co-IP (FIG. 6).

The next experiment concerns NO production. Description: NO production in db/db mouse wounds (nitrite measurement). It counts as in vivo, db/db mice. To be noted: day 12, nitrite measurement. The procedure:
Nitrite Measurement with Griess Reagent. Supernatants from confluent endothelial cells on 10-cm dishes with and without stimulation at 37° C. were analyzed for nitrite level using a Griess Reagent kit according to the manufacturer's instructions. Nitrite levels were normalized to eNOS expression level in the cells, as described in the art (Chen, et al. (2020) FASEB J. 34(4):5838-5850).
as §2

Another experiment deals with wound blood perfusion. Briefly: Blood perfusion by laser speckle contrast analysis (LASCA) in db/db mouse wounds. The format is in vivo, db/db mice. To be noted: day 7, 50 μM, vs control peptide. The procedure: Blood Perfusion Measurement. Immediately after creation of dorsal skin wounds on db/db mice using an 8 mm punch, 50 μl of 50 μM Myr-scrambled control or Myr-CBD7 peptide in F-127 gel sold under the tradename PLURONIC® was applied topically to the wounds on db/db mice. Blood perfusion was analyzed based on motion detected below the surface of the wound using a near infrared laser based PeriCam PSI laser speckle contrast analysis system (LASCA) as described previously (Elgharably, et al. (2013) Wound Repair Regen. 21(3):473-481; Das, et al. (2016) J. Immunol. 196(12):5089-5100).
To further investigate if Myr-CBD7 promotes healing of dorsal skin wounds on db/db mice by stimulating angiogenesis, blood perfusion as detected by laser speckle contrast analysis (LASCA), was monitored.

As for `CCCCCCCCCCCCCC(=O)N[C@@H](CCCCN)C(=O)N[C@H](C(=O)N[C@@H](CO)C(=O)N[C@@H](C)C(=O)N[C@@H](CO)C(=O)N[C@@H](CC(C)C)C(=O)N[C@@H](CCSC)C(=O)O)[C@@H](C)CC` [Myr-CBD7, myr-KISASLM] (Myristoyl-KISASLM-OH), the “CaM-eNOS binding (Co-IP)” value at CaM-eNOS binding was “no effect”. For the same molecule, the “reduction of wound size” value was determined as 20% in experiment [1] (day 5, 30 μl of 50 μM topical); 35% in experiment [1] (day 7, 30 μl of 50 μM topical); 19% in experiment [2] (day 4, compared to control peptide); 46% in experiment [2] (day 12, compared to control peptide). For the same molecule, the “wound size (FIG. 1)” value in experiment [1] (day 5 and 7, 30 μl (50 μM) per wound, vs Myr-control construct, P<0.05) is given as “reduced wound size significantly”. Further, the “re-epithelization of the skin wound (H&E stained sections)” value in experiment [1] (day 7, vs control construct) was “associated with re-epithelization of the skin wound”. In addition, the wound healing time entry in experiment [1] (topical administration on dermal wounds) was “decreased”. Besides, in experiment [2] (50 μl of 50 μM topical, vs control peptide), the “decrease of wound healing time” value amounted to 4 days. Besides, the “wound size (FIG. 5)” value in experiment [2] (from day 4, 30 μl (50 μM) topical, compared with control construct) was “reduces wound size significantly”. In addition, the “NO production in wounds” value in the experiment on NO production is listed as “significantly elevated”. Moreover, the blood perfusion result in the experiment on wound blood perfusion was “significantly increased”.
